Columns and labels:
Assay in all cases: relative viability (nuclei count vs DMSO), 5 days (fraction); higher = more cells survive
[1] = compound: CC1=CC(=C(N1C2=CC=C(C=C2)Cl)C)C(=O)CN3CCCCC3 [IU1-47] + Cc1cc(Nc2cc(N3CCN(C)CC3)nc(Sc3ccc(NC(=O)C4CC4)cc3)n2)n[nH]1 [Tozasertib] (partner 0.1 µM)
Method in brief: (§1)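 Lung cancer cell lines were pin-tool dosed in 1536-well plates on the day after seeding, with either a lone drug or a fixed anchor-drug dose plus five library-drug doses (not always all listed) in √10 steps. Nuclei were counted on 4× images after 5 days. Relative viability is the ratio of treated-well to vehicle-well nuclei counts, with each value a median of duplicate plates.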

[2] = compound: Cc1nc(C(=O)NCC(=O)O)c(O)c2ccc(Oc3ccccc3)cc12 [FG-4592] + CC1(C)CCC(c2ccc(Cl)cc2)=C(CN2CCN(c3ccc(C(=O)NS(=O)(=O)c4ccc(N[C@H](CCN5CCOCC5)CSc5ccccc5)c(S(=O)(=O)C(F)(F)F)c4)cc3)CC2)C1 [Navitoclax] (partner 0.5 µM)
Method in brief: as §1

[3] = compound: Cc1nc(C(=O)NCC(=O)O)c(O)c2ccc(Oc3ccccc3)cc12 [FG-4592] + C[C@@H](Oc1cc(-c2cnn(C3CCNCC3)c2)cnc1N)c1c(Cl)ccc(F)c1Cl [Crizotinib] (partner 1 µM)
Method in brief: as §1

[4] = compound: Cc1nc(C(=O)NCC(=O)O)c(O)c2ccc(Oc3ccccc3)cc12 [FG-4592] + Nc1nc2[nH]cc(CCc3ccc(C(=O)N[C@@H](CCC(=O)O)C(=O)O)cc3)c2c(=O)[nH]1 [Pemetrexed] (partner 0.2 µM)
Method in brief: as §1

| Cell Line | relative viability ([1]; first compound 0.08 µM) | relative viability ([1]; first compound 0.253 µM) | relative viability ([1]; first compound 0.8 µM) | relative viability ([1]; first compound 2.53 µM) | relative viability ([1]; first compound 8 µM) | relative viability ([2]; first compound 0.08 µM) | relative viability ([2]; first compound 0.253 µM) | relative viability ([2]; first compound 0.8 µM) | relative viability ([2]; first compound 2.53 µM) | relative viability ([2]; first compound 8 µM) | relative viability ([3]; first compound 0.08 µM) | relative viability ([3]; first compound 0.253 µM) | relative viability ([3]; first compound 0.8 µM) | relative viability ([3]; first compound 2.53 µM) | relative viability ([3]; first compound 8 µM) | relative viability ([4]; first compound 0.08 µM) | relative viability ([4]; first compound 0.253 µM) | relative viability ([4]; first compound 0.8 µM) | relative viability ([4]; first compound 2.53 µM) | relative viability ([4]; first compound 8 µM) |
| --- | --- | --- | --- | --- | --- | --- | --- | --- | --- | --- | --- | --- | --- | --- | --- | --- | --- | --- | --- | --- |
| EMC-BAC-2 | 0.279 | 0.305 | 0.285 | 0.305 | 0.271 | 1.13 | 1.12 | 1.11 | 1.16 | 1.09 | 0.736 | 0.749 | 0.813 | 0.772 | 0.731 | 0.407 | 0.407 | 0.447 | 0.434 | 0.423 |
| NCI-H2405 | 0.753 | 0.801 | 0.755 | 0.735 | 0.692 |  | 0.437 | 0.874 | 0.731 | 0.711 | 0.665 | 0.657 | 0.878 | 0.857 | 0.87 | 0.81 | 1.01 | 0.949 | 0.792 | 0.984 |
| NCI-H1944 | 0.231 | 0.248 | 0.265 | 0.283 | 0.265 | 1.07 | 1.03 | 0.962 | 1.03 | 0.907 | 1.05 | 1.1 | 1.13 | 1.17 | 1.05 | 0.608 | 0.703 | 0.567 | 0.602 | 0.606 |
| EPLC-272H | 0.228 | 0.347 | 0.246 |  | 0.145 | 1.15 | 1.09 | 0.775 | 1.05 | 1.08 | 0.844 | 0.72 | 0.631 | 0.888 | 0.873 | 0.321 | 0.223 | 0.319 | 0.353 | 0.377 |
| NCI-H1915 | 0.472 | 0.467 | 0.499 |  | 0.359 | 0.744 | 0.733 | 0.838 | 0.778 | 0.786 | 0.87 | 0.883 | 0.922 | 0.874 | 0.905 | 0.469 | 0.44 | 0.542 | 0.475 | 0.477 |
| NCI-H596 | 0.935 | 0.978 | 0.864 | 0.887 | 0.954 | 0.897 | 0.914 |  | 0.991 | 0.817 | 1.02 | 0.898 |  | 0.806 | 0.778 | 0.455 | 0.521 |  | 0.538 | 0.457 |
| NCI-H322M | 0.496 | 0.558 | 0.506 | 0.54 | 0.477 | 1.3 | 1.21 | 1.08 | 1 | 1.19 | 0.924 | 0.886 | 1.19 | 1.02 | 0.815 |  | 0.614 | 0.613 | 0.546 | 0.63 |
| NCI-H2228 | 0.267 | 0.303 | 0.246 | 0.198 | 0.249 | 0.949 | 0.663 | 0.896 | 0.832 | 0.819 | 0.592 | 0.279 | 0.522 | 0.437 | 0.554 | 0.368 | 0.302 | 0.434 | 0.331 | 0.32 |
| NCI-H647 | 0.372 | 0.309 |  | 0.248 | 0.306 | 1.16 | 1.04 | 1.04 | 0.961 | 1.12 | 0.941 | 1.04 | 1.01 | 1.17 | 1.03 | 0.165 | 0.14 | 0.211 | 0.161 | 0.15 |
| SK-MES-1 | 1 | 1.03 | 0.906 | 0.868 | 0.935 | 1.15 | 1.18 | 1.32 | 1.25 | 1.39 | 0.913 | 0.854 | 1 | 1.03 | 1 | 0.88 | 0.833 | 0.927 | 0.906 | 0.917 |
| NCI-H2170 | 0.714 | 0.786 | 0.762 | 0.892 | 0.676 | 0.708 | 0.593 | 0.691 | 0.485 | 0.322 | 1.16 | 1.14 | 1.24 | 1.22 | 0.909 | 0.235 | 0.308 | 0.256 | 0.266 | 0.252 |
| NCI-H2085 | 0.903 | 0.79 | 0.705 | 0.835 | 0.774 | 1.18 | 1.09 | 1.1 | 1.15 | 1.08 | 0.852 | 0.871 | 0.928 | 1.03 | 0.742 | 0.934 | 0.769 | 0.81 | 0.863 | 1.07 |
| SW 1573 | 0.17 | 0.167 | 0.176 | 0.184 | 0.143 | 0.771 | 0.933 | 1.02 | 0.937 | 0.803 | 0.664 | 0.7 | 0.71 | 1 | 0.632 | 0.753 | 0.638 | 0.805 | 0.809 | 0.535 |
| NCI-H441 | 0.824 | 0.713 | 0.667 | 0.662 | 0.544 | 0.606 | 1.01 | 0.573 | 0.964 | 0.588 | 0.582 | 0.646 | 0.916 | 0.72 | 0.632 | 0.267 | 0.343 | 0.272 | 0.296 | 0.248 |
| LOU-NH91 | 0.638 | 0.693 | 0.702 | 0.737 | 0.592 | 0.709 | 0.624 | 0.635 | 0.711 | 0.617 | 0.738 | 0.677 | 0.716 | 0.727 | 0.715 | 0.465 | 0.336 | 0.468 | 0.405 | 0.407 |
| NCI-H3122 | 0.442 | 0.423 | 0.371 | 0.46 | 0.331 | 1.03 | 0.978 | 0.997 | 1.03 | 1.05 | 0.277 | 0.271 | 0.26 | 0.3 | 0.255 | 0.197 | 0.191 | 0.194 | 0.187 | 0.211 |
| NCI-H460 | 0.459 | 0.513 | 0.496 | 0.57 | 0.393 | 1.15 | 1.08 | 1.25 | 0.963 | 0.979 | 0.87 | 0.864 | 1.21 | 0.952 | 0.994 | 0.0673 | 0.0639 | 0.058 | 0.0799 | 0.0618 |
| NCI-H1734 | 0.299 | 0.252 | 0.264 |  | 0.235 | 0.854 | 0.776 | 0.838 | 0.814 | 0.787 | 0.638 | 0.711 | 0.674 | 0.595 | 0.643 | 0.407 | 0.408 | 0.419 | 0.422 | 0.397 |
| LXF-289 | 0.212 | 0.203 | 0.224 | 0.22 | 0.171 | 0.956 | 0.914 | 1.02 | 0.936 | 0.953 | 0.796 | 0.721 | 0.911 | 0.77 | 0.901 | 0.853 | 0.906 | 1.02 | 0.883 | 0.948 |
| H3255 | 0.725 | 0.636 | 0.643 | 0.416 | 0.752 | 0.554 | 0.387 | 0.523 | 0.596 | 0.6 | 0.963 | 0.79 | 0.827 | 0.917 | 1.05 | 0.586 | 0.538 | 0.567 | 0.573 | 0.56 |
| 201T | 0.991 | 0.947 | 1.05 |  | 0.762 | 1.14 | 1.19 | 1.21 | 1.18 | 1.22 | 1 | 1.01 | 1.05 | 1.02 | 0.974 | 0.355 | 0.331 | 0.305 | 0.29 | 0.308 |
| NCI-H2126 | 0.905 | 0.866 | 0.818 |  | 0.737 | 0.825 | 0.773 | 0.817 | 0.875 | 0.807 | 0.989 | 1.01 | 1.04 | 1 | 1.03 | 0.701 | 0.583 | 0.656 | 0.609 | 0.696 |
| HOP-62 | 0.351 | 0.404 | 0.384 | 0.412 | 0.354 | 1.04 | 1.01 | 1.2 | 0.983 | 1.03 | 0.981 | 0.89 | 1.01 | 0.922 | 0.654 | 0.287 | 0.317 | 0.35 | 0.304 | 0.324 |
| CAL-12T | 0.408 | 0.326 | 0.34 | 0.318 | 0.287 | 1.22 | 1.18 | 1.33 | 1.05 | 0.764 | 0.664 | 0.62 | 0.753 | 0.677 | 0.585 | 1.21 | 1.3 | 1.3 | 0.974 | 1.04 |
| NCI-H520 | 0.429 | 0.419 | 0.471 | 0.461 | 0.363 | 1.03 | 1.05 | 1.05 | 1.07 | 0.879 | 0.731 | 0.652 | 0.932 | 0.758 | 0.586 | 0.62 | 0.766 | 0.774 | 0.8 | 0.698 |
| NCI-H1755 | 0.583 | 0.687 | 0.612 | 0.631 | 0.563 | 0.989 | 0.977 | 0.937 | 0.997 | 1.01 | 0.77 | 0.875 | 0.864 | 0.941 | 0.916 | 0.417 | 0.483 | 0.46 | 0.4 | 0.453 |
| NCI-H2023 | 0.329 | 0.363 | 0.366 | 0.349 | 0.291 | 0.991 | 1 | 1.12 | 0.94 | 0.829 | 0.609 | 0.66 | 0.703 | 0.768 | 0.544 | 0.228 | 0.198 | 0.244 | 0.232 | 0.217 |
| NCI-H2009 | 0.782 | 0.781 | 0.751 | 0.77 | 0.662 | 1.2 | 1.18 | 1.21 | 1.05 | 1.22 | 1.14 | 0.967 | 1.01 | 0.953 | 0.98 | 1.01 | 1.16 | 1 | 1.02 | 1.06 |
